Source: publication PMC6450621, “Changes of drug pharmacokinetics mediated by downregulation of kidney organic cation transporters Mate1 and Oct2 in a rat model of hyperuricemia” (PLoS ONE, 2019)
“And” between values parts separate entries of the source, which are not always exact repeats. Equal values may be shown once.

Experiments:
in vivo = settings: rat, plasma, intravenous
[1] = metformin; used for control and hyperuricemic rats; cited from earlier work
[2] = Pharmacokinetic study after intravenous administration in control and hyperuricemic rats (plasma, urine, kidney); settings: for Kp, kidney: 4 h after iv metformin 30 mg/kg; for CL renal / concentration at 0 min / concentration at 0.5 min / concentration at 2 min / concentration at 5 min / concentration at 30 min / concentration at 60 min / AUC(0-t) / AUC(0-inf) / dose excreted at 10 min / dose excreted at 20 min / dose excreted at 30 min / dose excreted at 60 min / dose excreted at 120 min / dose excreted at 240 min / dose excreted: rat; for CL renal: plasma and urine, CLR; for CL renal / AUC(0-t) / AUC(0-inf): iv; for concentration at 0 min / concentration at 0.5 min / concentration at 2 min / concentration at 5 min / concentration at 30 min / concentration at 60 min / AUC(0-t) / AUC(0-inf): plasma; for concentration at 0 min / concentration at 0.5 min / concentration at 2 min / concentration at 5 min / concentration at 30 min / concentration at 60 min / dose excreted at 10 min / dose excreted at 20 min / dose excreted at 30 min / dose excreted at 60 min / dose excreted at 120 min / dose excreted at 240 min / dose excreted: intravenous; for concentration at 0 min / concentration at 0.5 min / concentration at 2 min / concentration at 5 min / concentration at 30 min / concentration at 60 min: Plasma concentration; for AUC(0-inf): AUCinf; for dose excreted at 10 min / dose excreted at 20 min / dose excreted at 30 min / dose excreted at 60 min / dose excreted at 120 min / dose excreted at 240 min / dose excreted: urine; for dose excreted at 10 min / dose excreted at 20 min / dose excreted at 30 min / dose excreted at 60 min / dose excreted at 120 min / dose excreted at 240 min: Urinary recovery (cumulative); for dose excreted: Urinary Recovery;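 on all read-outs here: Pentobarbital-anesthetized rats with cannulated bladder, jugular plasma, timed urine and saline kidney homogenate assayed by HPLC or LC-MS/MS, Kp as kidney over plasma level at 4 h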
[3] = control rats, 0 min after iv metformin 30 mg/kg or cephalexin 10 mg/kg, individual rat
[4] = control rats, 0.5 min after iv metformin 30 mg/kg or cephalexin 10 mg/kg (creatinine endogenous), individual rat
[5] = control rats, 2 min after iv metformin 30 mg/kg or cephalexin 10 mg/kg, individual rat
[6] = control rats, 5 min after iv metformin 30 mg/kg or cephalexin 10 mg/kg, individual rat
[7] = control rats, 30 min after iv metformin 30 mg/kg or cephalexin 10 mg/kg (creatinine endogenous), individual rat
[8] = control rats, 60 min after iv metformin 30 mg/kg or cephalexin 10 mg/kg (creatinine endogenous), individual rat
[9] = control rats, iv metformin 30 mg/kg, individual rat
[10] = hyperuricemic rats, 0 min after iv metformin 30 mg/kg or cephalexin 10 mg/kg, individual rat
[11] = hyperuricemic rats, 0.5 min after iv metformin 30 mg/kg or cephalexin 10 mg/kg (creatinine endogenous), individual rat
[12] = hyperuricemic rats, 2 min after iv metformin 30 mg/kg or cephalexin 10 mg/kg, individual rat
[13] = hyperuricemic rats, 30 min after iv metformin 30 mg/kg or cephalexin 10 mg/kg (creatinine endogenous), individual rat
[14] = hyperuricemic rats, 60 min after iv metformin 30 mg/kg or cephalexin 10 mg/kg (creatinine endogenous), individual rat
[15] = hyperuricemic rats, iv metformin 30 mg/kg, individual rat
[16] = 30 mg/kg, control rats, iv metformin 30 mg/kg, individual rat
[17] = 30 mg/kg, hyperuricemic rats, iv metformin 30 mg/kg, individual rat
[18] = control rats, iv metformin 30 mg/kg or cephalexin 10 mg/kg, mean n=3
[19] = hyperuricemic rats, iv metformin 30 mg/kg or cephalexin 10 mg/kg, mean n=3

CN(C)C(=N)N=C(N)N [Metformin, metformin]
concentration at 15 min (in vivo): 67.3 µM | concentration at 120 min (in vivo): 3.94 µM | fu [1]: 0.85 [27] | Plasma concentration [2, 3]: 750 µM and 1198 µM | Plasma concentration [2, 4]: 571 µM and 817 µM | Plasma concentration [2, 5]: 293 µM and 304 µM | Plasma concentration [2, 6]: 154 µM and 164 µM | Urinary recovery (cumulative) ([2]; control rats, 20 min after iv metformin 30 mg/kg, individual rat): 26.0 % of dose and 21.2 % of dose and 46.7 % of dose | Plasma concentration [2, 7]: 33.2 µM and 34.5 µM | Urinary recovery (cumulative) ([2]; control rats, 30 min after iv metformin 30 mg/kg, individual rat): 43.9 % of dose and 27.9 % of dose and 51.8 % of dose | Plasma concentration [2, 8]: 13.0 µM and 12.8 µM | Urinary recovery (cumulative) ([2]; control rats, 60 min after iv metformin 30 mg/kg, individual rat): 44.6 % of dose and 64.4 % of dose | Urinary recovery (cumulative) ([2]; control rats, 120 min after iv metformin 30 mg/kg, individual rat): 63.3 % of dose and 72.5 % of dose | Urinary recovery (cumulative) ([2]; control rats, 240 min after iv metformin 30 mg/kg, individual rat): 72.0 % of dose and 76.4 % of dose | Kp, kidney ([2]; control rats, individual rat): 2.8 and 35.8 and 11.4 | AUC0-4 [2, 9]: 5208 µM·min and 5490 µM·min | AUCinf [2, 9]: 5393 µM·min and 5550 µM·min | CLR [2, 9]: 23.6 mL/min/kg and 23.7 mL/min/kg | Plasma concentration [2, 10]: 796 µM and 923 µM | Plasma concentration [2, 11]: 780 µM and 862 µM | Plasma concentration [2, 12]: 336 µM and 407 µM | Plasma concentration ([2]; hyperuricemic rats, 5 min after iv metformin 30 mg/kg or cephalexin 10 mg/kg, individual rat): 86 µM and 154 µM and 193 µM | Urinary recovery (cumulative) ([2]; hyperuricemic rats, 10 min after iv metformin 30 mg/kg, individual rat): 16.7 % of dose and 11.6 % of dose | Urinary recovery (cumulative) ([2]; hyperuricemic rats, 20 min after iv metformin 30 mg/kg, individual rat): 26.1 % of dose and 20.0 % of dose | Plasma concentration [2, 13]: 54.0 µM and 44.1 µM | Urinary recovery (cumulative) ([2]; hyperuricemic rats, 30 min after iv metformin 30 mg/kg, individual rat): 31.6 % of dose and 27.5 % of dose | Plasma concentration [2, 14]: 26.4 µM and 27.5 µM | Urinary recovery (cumulative) ([2]; hyperuricemic rats, 60 min after iv metformin 30 mg/kg, individual rat): 41.1 % of dose and 37.0 % of dose | Urinary recovery (cumulative) ([2]; hyperuricemic rats, 120 min after iv metformin 30 mg/kg, individual rat): 49.6 % of dose and 47.8 % of dose | Urinary recovery (cumulative) ([2]; hyperuricemic rats, 240 min after iv metformin 30 mg/kg, individual rat): 63.2 % of dose and 59.1 % of dose | Kp, kidney ([2]; hyperuricemic rats, individual rat): 94.7 and 122.2 and 54.1 | AUC0-4 [2, 15]: 7033 µM·min and 4854 µM·min | AUCinf [2, 15]: 7159 µM·min and 4997 µM·min | CLR [2, 15]: 14.3 mL/min/kg and 23.7 mL/min/kg | (CLR/fu)/CLInulin Fold Change ([2]; hyperuricemic vs control rats): 1.00 | AUC0-4 Fold Change ([2]; hyperuricemic vs control rats): 1.10 | AUCinf Fold Change ([2]; hyperuricemic vs control rats): 1.10 | CLR Fold Change ([2]; hyperuricemic vs control rats): 0.80 | Kp, kidney Fold Change ([2]; hyperuricemic vs control rats): 5.44 | Urinary Recovery Fold Change ([2]; hyperuricemic vs control rats): 0.85 | CL renal [2, 16]: 21.7 mL/min/kg | CL renal [2, 17]: 16.8 mL/min/kg | CL renal ([2]; control rats, iv metformin 30 mg/kg or cephalexin 10 mg/kg, creatinine endogenous, mean n=3): 23 mL/min/kg | CL renal ([2]; hyperuricemic rats, iv metformin 30 mg/kg or cephalexin 10 mg/kg, creatinine endogenous, mean n=3): 18.3 mL/min/kg | concentration at 0 min [2, 3]: 1270 µM | concentration at 0 min ([2]; control rats, 0 min after iv metformin 30 mg/kg or cephalexin 10 mg/kg, mean n=3): 1070 µM | concentration at 0.5 min [2, 4]: 871 µM | concentration at 0.5 min ([2]; control rats, 0.5 min after iv metformin 30 mg/kg or cephalexin 10 mg/kg (creatinine endogenous), mean n=3): 753 µM | concentration at 2 min [2, 5]: 385 µM | concentration at 2 min ([2]; control rats, 2 min after iv metformin 30 mg/kg or cephalexin 10 mg/kg, mean n=3): 328 µM | concentration at 5 min [2, 6]: 159 µM | concentration at 5 min ([2]; control rats, 5 min after iv metformin 30 mg/kg or cephalexin 10 mg/kg, mean n=3): 159 µM | concentration at 30 min [2, 7]: 37 µM | concentration at 30 min ([2]; control rats, 30 min after iv metformin 30 mg/kg or cephalexin 10 mg/kg (creatinine endogenous), mean n=3): 34.9 µM | concentration at 60 min [2, 8]: 14.4 µM | concentration at 60 min ([2]; control rats, 60 min after iv metformin 30 mg/kg or cephalexin 10 mg/kg (creatinine endogenous), mean n=3): 13.4 µM | concentration at 0 min [2, 10]: 676 µM | concentration at 0 min ([2]; hyperuricemic rats, 0 min after iv metformin 30 mg/kg or cephalexin 10 mg/kg, mean n=3): 798 µM | concentration at 0.5 min [2, 11]: 578 µM | concentration at 0.5 min ([2]; hyperuricemic rats, 0.5 min after iv metformin 30 mg/kg or cephalexin 10 mg/kg (creatinine endogenous), mean n=3): 740 µM | concentration at 2 min [2, 12]: 267 µM | concentration at 2 min ([2]; hyperuricemic rats, 2 min after iv metformin 30 mg/kg or cephalexin 10 mg/kg, mean n=3): 337 µM | concentration at 5 min ([2]; hyperuricemic rats, 5 min after iv metformin 30 mg/kg or cephalexin 10 mg/kg, mean n=3): 144 µM | concentration at 30 min [2, 13]: 30 µM | concentration at 30 min ([2]; hyperuricemic rats, 30 min after iv metformin 30 mg/kg or cephalexin 10 mg/kg (creatinine endogenous), mean n=3): 42.7 µM | concentration at 60 min [2, 14]: 20.6 µM | concentration at 60 min ([2]; hyperuricemic rats, 60 min after iv metformin 30 mg/kg or cephalexin 10 mg/kg (creatinine endogenous), mean n=3): 24.9 µM | AUC(0-t) ([2]; 30 mg/kg, AUC0-4, control rats, iv metformin 30 mg/kg, individual rat): 98.2 µM·h | AUC(0-t) ([2]; 30 mg/kg, AUC0-4, hyperuricemic rats, iv metformin 30 mg/kg, individual rat): 107 µM·h | AUC(0-inf) [2, 16]: 99.5 µM·h | AUC(0-inf) [2, 17]: 109 µM·h | AUC(0-t) ([2]; AUC0-4, control rats, iv metformin 30 mg/kg or cephalexin 10 mg/kg, creatinine endogenous, mean n=3): 92.2 µM·h | AUC(0-t) ([2]; AUC0-4, hyperuricemic rats, iv metformin 30 mg/kg or cephalexin 10 mg/kg, creatinine endogenous, mean n=3): 102 µM·h | AUC(0-inf) [2, 18]: 94 µM·h | AUC(0-inf) [2, 19]: 104 µM·h | dose excreted at 10 min ([2]; 30 mg/kg, control rats, 10 min after iv metformin 30 mg/kg, mean n=3): 17.8% | dose excreted at 20 min ([2]; 30 mg/kg, control rats, 20 min after iv metformin 30 mg/kg, mean n=3): 31.3% | dose excreted at 30 min ([2]; 30 mg/kg, control rats, 30 min after iv metformin 30 mg/kg, mean n=3): 41.2% | dose excreted at 60 min ([2]; 30 mg/kg, control rats, 60 min after iv metformin 30 mg/kg, individual rat): 57.8% | dose excreted at 60 min ([2]; 30 mg/kg, control rats, 60 min after iv metformin 30 mg/kg, mean n=3): 55.6% | dose excreted at 120 min ([2]; 30 mg/kg, control rats, 120 min after iv metformin 30 mg/kg, individual rat): 61.5% | dose excreted at 120 min ([2]; 30 mg/kg, control rats, 120 min after iv metformin 30 mg/kg, mean n=3): 65.7% | dose excreted at 240 min ([2]; 30 mg/kg, control rats, 240 min after iv metformin 30 mg/kg, individual rat): 75.1% | dose excreted at 10 min ([2]; 30 mg/kg, hyperuricemic rats, 10 min after iv metformin 30 mg/kg, individual rat): 15.5% | dose excreted at 10 min ([2]; 30 mg/kg, hyperuricemic rats, 10 min after iv metformin 30 mg/kg, mean n=3): 14.6% | dose excreted at 20 min ([2]; 30 mg/kg, hyperuricemic rats, 20 min after iv metformin 30 mg/kg, individual rat): 26.9% | dose excreted at 20 min ([2]; 30 mg/kg, hyperuricemic rats, 20 min after iv metformin 30 mg/kg, mean n=3): 24.3% | dose excreted at 30 min ([2]; 30 mg/kg, hyperuricemic rats, 30 min after iv metformin 30 mg/kg, individual rat): 35.7% | dose excreted at 30 min ([2]; 30 mg/kg, hyperuricemic rats, 30 min after iv metformin 30 mg/kg, mean n=3): 31.6% | dose excreted at 60 min ([2]; 30 mg/kg, hyperuricemic rats, 60 min after iv metformin 30 mg/kg, individual rat): 46% | dose excreted at 60 min ([2]; 30 mg/kg, hyperuricemic rats, 60 min after iv metformin 30 mg/kg, mean n=3): 41.4% | dose excreted at 120 min ([2]; 30 mg/kg, hyperuricemic rats, 120 min after iv metformin 30 mg/kg, individual rat): 56.1% | dose excreted at 120 min ([2]; 30 mg/kg, hyperuricemic rats, 120 min after iv metformin 30 mg/kg, mean n=3): 51.1% | dose excreted at 240 min ([2]; 30 mg/kg, hyperuricemic rats, 240 min after iv metformin 30 mg/kg, individual rat): 67.5% | dose excreted at 240 min ([2]; 30 mg/kg, hyperuricemic rats, 240 min after iv metformin 30 mg/kg, mean n=3): 63.3% | dose excreted [2, 18]: 74.5% | dose excreted [2, 19]: 63.3%
